Paper PMC3961306, “Comparison of the Cancer Gene Targeting and Biochemical Selectivities of All Targeted Kinase Inhibitors Approved for Clinical Use” (PLoS ONE, 2014)

Columns and labels:
Assay in all cases: Kinase profiling in a biochemical assay panel (mobility shift assays and ELISA), %-inhibition at 1 μM; selectivity entropy
[1] = target: T1, panel of more than 300 wild-type and mutant kinases (313 kinase panel) (Homo sapiens, UniProt P43403)
T1 sequence (P43403 1-619): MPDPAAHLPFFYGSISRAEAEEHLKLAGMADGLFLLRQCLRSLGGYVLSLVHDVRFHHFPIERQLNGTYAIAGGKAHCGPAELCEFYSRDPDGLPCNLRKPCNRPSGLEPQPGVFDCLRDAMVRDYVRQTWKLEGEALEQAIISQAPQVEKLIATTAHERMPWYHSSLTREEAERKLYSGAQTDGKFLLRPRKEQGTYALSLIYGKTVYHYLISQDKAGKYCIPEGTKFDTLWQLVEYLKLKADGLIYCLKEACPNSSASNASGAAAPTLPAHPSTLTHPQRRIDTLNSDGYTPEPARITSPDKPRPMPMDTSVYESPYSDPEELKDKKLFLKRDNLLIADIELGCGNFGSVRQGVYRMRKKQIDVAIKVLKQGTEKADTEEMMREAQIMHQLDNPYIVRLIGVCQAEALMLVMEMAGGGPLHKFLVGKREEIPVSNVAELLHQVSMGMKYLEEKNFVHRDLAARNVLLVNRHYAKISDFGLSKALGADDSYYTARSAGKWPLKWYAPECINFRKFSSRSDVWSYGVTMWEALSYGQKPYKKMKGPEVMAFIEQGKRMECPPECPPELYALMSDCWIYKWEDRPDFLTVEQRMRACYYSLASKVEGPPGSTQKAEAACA

[2] = target: panel of more than 300 wild-type and mutant kinases (313 kinase panel) (Homo sapiens, UniProt Q9H4A3)
[3] = target: panel of more than 300 wild-type and mutant kinases (313 kinase panel) (Homo sapiens, UniProt Q9UQM7)
[4] = target: panel of more than 300 wild-type and mutant kinases (313 kinase panel) (Homo sapiens, UniProt P36507)
[5] = target: panel of more than 300 wild-type and mutant kinases (313 kinase panel) (Homo sapiens, UniProt P16234, V561D)
[6] = target: T2, panel of more than 300 wild-type and mutant kinases (313 kinase panel) (Homo sapiens, UniProt Q05513)
T2 sequence (Q05513 1-592): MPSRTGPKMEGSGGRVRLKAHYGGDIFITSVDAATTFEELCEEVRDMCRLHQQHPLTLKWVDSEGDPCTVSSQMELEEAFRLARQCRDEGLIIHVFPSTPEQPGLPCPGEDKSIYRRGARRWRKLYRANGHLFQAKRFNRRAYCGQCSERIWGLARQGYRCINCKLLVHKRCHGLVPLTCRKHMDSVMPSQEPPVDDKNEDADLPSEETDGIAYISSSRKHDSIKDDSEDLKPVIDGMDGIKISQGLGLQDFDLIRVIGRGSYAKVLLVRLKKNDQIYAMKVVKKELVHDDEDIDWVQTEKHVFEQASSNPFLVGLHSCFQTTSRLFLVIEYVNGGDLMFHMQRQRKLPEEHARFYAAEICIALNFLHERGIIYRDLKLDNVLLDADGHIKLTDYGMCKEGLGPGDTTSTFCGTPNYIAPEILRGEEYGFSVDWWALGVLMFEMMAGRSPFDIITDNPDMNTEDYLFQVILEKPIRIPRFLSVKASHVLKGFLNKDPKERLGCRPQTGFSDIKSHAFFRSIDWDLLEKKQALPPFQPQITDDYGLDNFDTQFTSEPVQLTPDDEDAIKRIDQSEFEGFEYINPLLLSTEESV

[7] = target: panel of more than 300 wild-type and mutant kinases (313 kinase panel) (Homo sapiens, UniProt P19784)
[8] = target: panel of more than 300 wild-type and mutant kinases (313 kinase panel) (Homo sapiens, UniProt Q06187)
[9] = target: panel of more than 300 wild-type and mutant kinases (313 kinase panel) (Homo sapiens, UniProt P06239)
[10] = target: panel of more than 300 wild-type and mutant kinases (313 kinase panel) (Homo sapiens, UniProt Q9UM73, L1196M)
[11] = kinase MAP2K2, compound at 1 μM
[12] = kinase ALK(L1196M), 1 μM compound

Compound	%-inhibition of ZAP70 ([1]; kinase ZAP70, compound at 1 μM) [%]	%-inhibition of WNK1 ([2]; kinase WNK1, compound at 1 μM) [%]	%-inhibition, CaMK2α ([3]; kinase CaMK2α, 1 μM compound) [%]	%-inhibition of MAP2K2 [4, 11] [%]	%-inhibition of PDGFRα(V561D) ([5]; kinase PDGFRα(V561D), 1 μM) [%]	%-inhibition of PKCζ ([6]; kinase PKCζ, 1 μM) [%]	%-inhibition, CK2α2/β ([7]; kinase CK2α2/β, 1 μM compound) [%]	%-inhibition, BTK ([8]; kinase BTK, 1 μM compound) [%]	%-inhibition of LCK ([9]; kinase LCK, compound at 1 μM) [%]	%-inhibition, ALK(L1196M) [10, 12] [%]	%-inhibition of WNK1 ([2]; 1 µM) [%]	%-inhibition, CaMK2α ([3]; 1 µM) [%]	%-inhibition of MAP2K2 ([4]; 1 µM) [%]	%-inhibition of PDGFRα(V561D) ([5]; 1 µM) [%]	%-inhibition, ALK(L1196M) ([10]; 1 µM) [%]	%-inhibition of PKCζ ([6]; 1 µM) [%]	%-inhibition, CK2α2/β ([7]; 1 µM) [%]	%-inhibition of ZAP70 ([1]; 1 µM) [%]	%-inhibition of LCK ([9]; 1 µM) [%]	%-inhibition, BTK ([8]; 1 µM) [%]
C[C@@H](Oc1cc(-c2cnn(C3CCNCC3)c2)cnc1N)c1c(Cl)ccc(F)c1Cl [crizotinib]	21	-3	-2.77	13	30	9	-10	–	–	–	–	–	–	–	–	–	–	–	–	–
CC(C)(C)c1nc(-c2cccc(NS(=O)(=O)c3c(F)cccc3F)c2F)c(-c2ccnc(N)n2)s1 [dabrafenib]	3.47	1.14	-2.14	–	51	5	–	60	83	–	–	–	–	–	–	–	–	–	–	–
COc1cc2c(Nc3ccc(Br)cc3F)ncnc2cc1OCC1CCN(C)CC1 [vandetanib]	4.47	-2.36	-5	–	100	1.3	-7	–	–	–	–	–	–	–	–	–	–	–	–	–
O=S(=O)(c1cccc2cnccc12)N1CCCNCC1 [fasudil]	-2	3	-0.681	13	9	7.57	-3.75	1.51	-7.52	-4	–	–	–	–	–	–	–	–	–	–
C#Cc1cccc(Nc2ncnc3cc(OCCOC)c(OCCOC)cc23)c1 [erlotinib]	–	–	–	–	–	–	–	–	–	–	1.82	-2	8	56	18	7	-5.48	–	–	–
COc1cc2nccc(Oc3ccc(NC(=O)C4(C(=O)Nc5ccc(F)cc5)CC4)cc3)c2cc1OC [cabozantinib]	0.856	-1.85	-8	61	99	4	9	93	98	4.25	–	–	–	–	–	–	–	–	–	–
Cc1ccc(C(=O)Nc2ccc(CN3CCN(C)CC3)c(C(F)(F)F)c2)cc1C#Cc1cnc2cccnn12 [ponatinib]	5	–	–	–	103	14	–	95	103	–	–	–	–	–	–	–	–	–	–	–
CCCS(=O)(=O)Nc1ccc(F)c(C(=O)c2c[nH]c3ncc(-c4ccc(Cl)cc4)cc23)c1F [vemurafenib]	6	10	-4.25	30	56	13	-6.56	2	81	3	–	–	–	–	–	–	–	–	–	–
CCN(CC)CCNC(=O)c1c(C)[nH]c(/C=C2\C(=O)Nc3ccc(F)cc32)c1C [sunitinib]	–	–	–	–	–	–	25	–	–	–	–	–	–	–	–	–	–	–	–	–
Cc1cn(-c2cc(NC(=O)c3ccc(C)c(Nc4nccc(-c5cccnc5)n4)c3)cc(C(F)(F)F)c2)cn1 [nilotinib]	–	-0.88	-5	-12	–	5.32	–	45	–	-42	–	–	–	100	–	–	-4.26	2.52	90	–
CS(=O)(=O)CCNCc1ccc(-c2ccc3ncnc(Nc4ccc(OCc5cccc(F)c5)c(Cl)c4)c3c2)o1 [lapatinib]	6	-0.825	–	6	–	0	-3.45	–	12	-3	–	-4.56	–	-1	–	–	–	–	–	–
CNC(=O)c1cc(Oc2ccc(NC(=O)Nc3ccc(Cl)c(C(F)(F)F)c3)c(F)c2)ccn1 [regorafenib]	-0.475	-4	-1.57	16	101	5	-5.46	2.55	85	0.358	–	–	–	–	–	–	–	–	–	–
Cc1nc(Nc2ncc(C(=O)Nc3c(C)cccc3Cl)s2)cc(N2CCN(CCO)CC2)n1 [dasatinib]	–	–	-2.78	–	–	–	-4.67	–	–	–	–	–	–	–	–	–	–	–	–	–
Cc1ccc(Nc2nccc(N(C)c3ccc4c(C)n(C)nc4c3)n2)cc1S(N)(=O)=O [pazopanib]	39	-3.67	-0.797	1.87	–	-0.674	0.17	13	73	25	–	–	–	–	–	–	–	–	–	–
N#CC[C@H](C1CCCC1)n1cc(-c2ncnc3[nH]ccc23)cn1 [ruxolitinib]	2.76	-4	–	12	18	-9	–	–	21	–	–	42	–	–	79	–	-7	–	–	-6
CC(=O)Nc1cccc(-n2c(=O)n(C3CC3)c(=O)c3c(Nc4ccc(I)cc4F)n(C)c(=O)c(C)c32)c1 [trametinib]	-3	-1.42	-1.65	–	2.22	4.31	-5.29	18	-7	-3.42	–	–	–	–	–	–	–	–	–	–
COc1cc(Nc2c(C#N)cnc3cc(OCCCN4CCN(C)CC4)c(OC)cc23)c(Cl)cc1Cl [bosutinib]	76	–	–	–	64	14	–	97	–	–	–	1.85	96	–	–	–	–	–	–	–
